Where two headings read alike, the source gives them in different places.
What was measured:
MDA-MB-231 cells = experiment: Cell viability assay (PrestoBlue) in MDA-MB-231, with or without TNF; assay type: cell-based, human; settings: 48 h treatment
Description: MDA-MB-231 cells (human breast adenocarcinoma cell line) were grown in standard conditions (37 °C, 5% CO2) in RPMI medium supplemented with 10% serum, 1 mg·mL^−1 penicillin, 100 μg·mL^−1 streptomycin and 2 mM l-glutamine. Cell viability was evaluated by using PrestoBlue^TM Cell Viability Reagent (Thermo Fisher Scientific, Rodano, Italy). Resazurin, the active nontoxic and non-fluorescent ingredient, is continuously converted in resorufin, a red fluorescent compound, in viable cells. Cells were seeded on black-wall, clear bottom 96-well microplates at a density of 50,000 cells/well. After 24 h, cells were treated with the FC2 derivatives from 1.5 μM to 100 μM (vehicle, DMSO) in the absence or presence of TNF at the concentration of 50 ng/mL. After 48 h, the fluorescence was determined using a fluorescence plate reader (Tristar2 S, Berthold Technologies, Bad Wildbad, Germany) equipped with 560 nm excitation and 585 nm emission filters. At least five replicates were performed for each condition. The EC50, was calculated plotting the percentage of cell survival against the compound concentration (A) and fitting the data with: % survival=Tmax−TminA/A+EC50+Tmin where Tmax and Tmin are the maximum and minimum effect induced by the compounds. Analysis was performed with IgorPro 8.04 software (Lake Oswego, OR, USA).

XIAP-BIR1 = XIAP-BIR1 (Homo sapiens, UniProt P98170); experiment: Trp fluorescence binding assay on XIAP-BIR1
Chain of XIAP-BIR1 (P98170 10-99 limits assumed): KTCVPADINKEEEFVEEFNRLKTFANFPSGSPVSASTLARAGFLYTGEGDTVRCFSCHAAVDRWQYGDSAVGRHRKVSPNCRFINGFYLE
Description: (§1) The binding of FC2 derivatives to the BIR1 domains was assessed by in vitro fluorimetric assays.
(§2) The fluorescence intensity emitted by XIAP-BIR1 Trp73 or cIAP2-BIR1 Trp76 was measured by varying the concentration of the different ligands. The tests were performed with a spectral fluorimeter (Varian Cary Eclipse Fluorescence Spectrophotometer, Agilent Technologies), recording the fluorescence emission spectra between 300 and 400 nm (excitation 280 nm). XIAP-/ cIAP2-BIR1 protein samples were concentrated at 5 μM.
(§3) All the analyses were performed with GraFit version 5 (Erithacus Software Ltd., Horley, UK).

cIAP2-BIR1 = cIAP2-BIR1 (Homo sapiens, UniProt Q13489); experiment: Trp fluorescence binding assay on cIAP2-BIR1
Chain of cIAP2-BIR1 (Q13489 26-99 limits assumed): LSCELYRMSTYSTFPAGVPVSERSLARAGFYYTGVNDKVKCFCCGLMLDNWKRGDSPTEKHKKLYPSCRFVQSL
Description: as §1, §2, §3

[1] = Homo sapiens, MDA-MB-231, 48 h, MDA-MB-231, in combination with 50 ng/mL TNF, read-out: EC50 (+TNF)
[2] = Homo sapiens, MDA-MB-231, 48 h, MDA-MB-231, single agent, read-out: EC50
[3] = Homo sapiens, MDA-MB-231, in combination with 50 ng/mL TNF, read-out: EC50 (+TNF)
[4] = Homo sapiens, MDA-MB-231, single agent, read-out: EC50
[5] = read-out: Kd (XIAP-BIR1), Trp fluorescence titration, 23 °C, pH 8.0
[6] = read-out: Kd (cIAP2-BIR1), Trp fluorescence titration, 23 °C, pH 8.0

| Structure (SMILES) | EC50 (MDA-MB-231 cells; [1]) [µM] | EC50 (MDA-MB-231 cells; [2]) [µM] | Kd (XIAP-BIR1) [µM] | Kd (cIAP2-BIR1) [µM] | EC50 (MDA-MB-231 cells; [3]) [µM] | EC50 (MDA-MB-231 cells; [4]) [µM] | Kd (XIAP-BIR1; [5]) [µM] | Kd (cIAP2-BIR1; [6]) [µM] | EC50 (MDA-MB-231 cells; MDA-MB-231, single agent) | EC50 (MDA-MB-231 cells; MDA-MB-231, single agent, read-out: EC50) [µM] |
| --- | --- | --- | --- | --- | --- | --- | --- | --- | --- | --- |
| COc1cc(C2Nc3ccc(C(=O)c4ccccc4)cc3NC3=C2C(=O)CCC3)ccc1O (centres unmarked) [4r] | – | – | 33.1 ± 1.4 | 46 ± 8.33 | 12.8 ± 1.9 | 7.49 ± 1.65 | – | – | – | – |
| O=C1CCCC2=C1C(c1ccccc1)Nc1ccc(C(=O)c3ccccc3)cc1N2 (centres unmarked) [4d, 7-benzoyl-11-phenyl-2,3,4,5,10,11-hexahydro-1H-dibenzo[b,e][1,4]diazepin-1-one] | 69.2 ± 8.1 | 19.6 ± 4.23 | 4.4 ± 2.2 | 21.9 ± 6.2 | – | – | – | – | – | – |
| Cc1ccc(C2Nc3ccc(C(=O)c4ccccc4)cc3NC3=C2C(=O)CCC3)cc1 (centres unmarked) [4e, 7-benzoyl-11-(p-tolyl)-2,3,4,5,10,11-hexahydro-1H-dibenzo[b,e][1,4]diazepin-1-one] | 47.9 ± 9.7 | 38.9 ± 7.55 | > 50 | 27.6 ± 7.3 | – | – | – | – | – | – |
| COc1cccc(C2Nc3ccc(C(=O)c4ccccc4)cc3NC3=C2C(=O)CCC3)c1 (centres unmarked) [4k] | 13 ± 4.15 | 10.3 ± 4.63 | – | – | – | – | > 50 | > 50 | – | – |
| O=C1CCCC2=C1C(c1ccc(C(F)(F)F)cc1)Nc1ccc(C(=O)c3ccccc3)cc1N2 (centres unmarked) [4h] | 48.8 ± 5.72 | 22.3 ± 8.67 | 14.9 ± 3.8 | 43.4 ± 13.9 | – | – | – | – | – | – |
| COc1ccc(C2Nc3ccc(C(=O)c4ccccc4)cc3NC3=C2C(=O)CCC3)cc1OC (centres unmarked) [4o] | 15.4 ± 6.86 | 13.5 ± 4.67 | 7.5 ± 2.9 | 12 ± 2.4 | – | – | – | – | – | – |
| COc1cc(C2Nc3ccc(C(=O)c4ccccc4)cc3NC3=C2C(=O)CCC3)cc([N+](=O)[O-])c1O (centres unmarked) [4v] | – | – | 46.4 ± 5.31 | 38 ± 2.78 | 26.8 ± 12.5 | 31.4 ± 11.4 | – | – | – | – |
| COc1cccc(C2Nc3ccc(C(=O)c4ccccc4)cc3NC3=C2C(=O)CCC3)c1O (centres unmarked) [4t] | – | – | > 50 | > 50 | – | – | – | – | without activity | – |
| O=C1CCCC2=C1C(c1ccc(O)cc1)Nc1ccc(C(=O)c3ccccc3)cc1N2 (centres unmarked) [4j] | 59.7 ± 14.8 | 48.2 ± 15.1 | – | – | – | – | 7.26 ± 0.98 | 27.6 ± 3.16 | – | – |
| O=C1CCCC2=C1C(c1c[nH]c3ccccc13)Nc1ccc(C(=O)c3ccccc3)cc1N2 (centres unmarked) [FC2, 7-benzoyl-11-(1H-indol-3-yl)-2,3,4,5,10,11-hexahydro-1H-dibenzo[b,e][1,4]diazepin-1-one] | – | – | – | – | 9.08 ± 1.85 | 11.4 ± 2.08 | – | – | – | – |
| O=C1CCCC2=C1C(c1ccc(O)c(O)c1)Nc1ccc(C(=O)c3ccccc3)cc1N2 (centres unmarked) [4p] | 9.5 ± 4.73 | 6.92 ± 2.43 | 15.9 ± 5.2 | 26.9 ± 4.3 | – | – | – | – | – | – |
| O=C1CCCC2=C1C(c1cccc(O)c1)Nc1ccc(C(=O)c3ccccc3)cc1N2 (centres unmarked) [4l] | 16.1 ± 3.7 | 18.6 ± 2.56 | 22 ± 1.18 | 38.6 ± 3.56 | – | – | – | – | – | – |

The remaining lines, values ahead:

| EC50 (MDA-MB-231 cells; [1]) [µM] | EC50 (MDA-MB-231 cells; [2]) [µM] | Kd (XIAP-BIR1) [µM] | Kd (cIAP2-BIR1) [µM] | EC50 (MDA-MB-231 cells; [3]) [µM] | EC50 (MDA-MB-231 cells; [4]) [µM] | Kd (XIAP-BIR1; [5]) [µM] | Kd (cIAP2-BIR1; [6]) [µM] | EC50 (MDA-MB-231 cells; MDA-MB-231, single agent) | EC50 (MDA-MB-231 cells; MDA-MB-231, single agent, read-out: EC50) [µM] | Structure (SMILES) |
| --- | --- | --- | --- | --- | --- | --- | --- | --- | --- | --- |
| 9.2 ± 5.75 | 21.9 ± 8.17 | 30 ± 7.47 | 46.3 ± 24.8 | – | – | – | – | – | – | O=C1CCCC2=C1C(c1cccs1)Nc1ccc(C(=O)c3ccccc3)cc1N2 (centres unmarked) [4b, 7-benzoyl-11-(thiophen-2-yl)-2,3,4,5,10,11-hexahydro-1H-dibenzo[b,e][1,4]diazepin-1-one] |
| – | – | > 50 | > 50 | 14.6 ± 1.74 | 15.2 ± 3.63 | – | – | – | – | COc1ccc(C2Nc3ccc(C(=O)c4ccccc4)cc3NC3=C2C(=O)CCC3)cc1O (centres unmarked) [4s] |
| 22.2 ± 6.67 | 25.9 ± 7.03 | > 50 | > 50 | – | – | – | – | – | – | O=C1CCCC2=C1C(c1ccc(Cl)cc1)Nc1ccc(C(=O)c3ccccc3)cc1N2 (centres unmarked) [4i] |
| – | – | 38.1 ± 1.68 | 26.5 ± 1.07 | – | – | – | – | loss of activity | – | Nc1cccc(C2Nc3ccc(C(=O)c4ccccc4)cc3NC3=C2C(=O)CCC3)c1 (centres unmarked) [4n] |
| – | – | – | 20.5 ± 4 | 3.82 ± 1.41 | 5.54 ± 1.03 | – | – | – | – | O=C1CCCC2=C1C(c1cccc([N+](=O)[O-])c1)Nc1ccc(C(=O)c3ccccc3)cc1N2 (centres unmarked) [4m] |
| – | – | 41.8 ± 11.7 | 16.4 ± 2.9 | 14 ± 2.4 | 14.7 ± 4.98 | – | – | – | – | O=C1CCCC2=C1C(c1ccc3c(c1)OC(F)(F)O3)Nc1ccc(C(=O)c3ccccc3)cc1N2 (centres unmarked) [4q] |
| 45.3 ± 3.75 | 65 | > 50 | > 50 | – | – | – | – | – | 65.1 ± 2.43 | Cc1ccc(C2Nc3ccc(C(=O)c4ccccc4)cc3NC3=C2C(=O)CCC3)o1 (centres unmarked) [4c, 7-benzoyl-11-(5-methylfuran-2-yl)-2,3,4,5,10,11-hexahydro-1H-dibenzo[b,e][1,4]diazepin-1-one] |
| 36.3 ± 10.4 | 67.2 ± 7.6 | 18 ± 5.4 | – | – | – | – | – | – | – | COc1ccc(C2Nc3ccc(C(=O)c4ccccc4)cc3NC3=C2C(=O)CCC3)cc1 (centres unmarked) [4g] |
| – | – | – | – | 9.53 ± 3.61 | 17 ± 5.4 | 37.3 ± 4.45 | > 50 | – | – | O=C1CCCC2=C1C(c1ccc(O)c([N+](=O)[O-])c1)Nc1ccc(C(=O)c3ccccc3)cc1N2 (centres unmarked) [4u] |
| 16.9 ± 7.14 | 42.8 ± 10.1 | 6.8 ± 1.3 | 1.3 ± 0.7 | – | – | – | – | – | – | CC1(C)CC(=O)C2=C(C1)Nc1cc(C(=O)c3ccccc3)ccc1NC2c1c[nH]c2ccccc12 (centres unmarked) [4a, 7-benzoyl-11-(1H-indol-3-yl)-3,3-dimethyl-2,3,4,5,10,11-hexahydro-1H-dibenzo[b,e][1,4]diazepin-1-one] |
